According to the NIST ThermoML archive (doi:10.1016/j.jct.2017.03.004):
± gives the expanded uncertainty stated by the source.

Test: activity coefficient (dimensionless); of the first substance listed, at infinite dilution; xn = mol fraction of the nth substance listed
Conditions: 101.33 kPa, Liquid, Chromatography, x1 = 0

Compound	activity coefficient (318.15 K)	activity coefficient (328.15 K)	activity coefficient (338.15 K)	activity coefficient (348.15 K)	activity coefficient (358.15 K)	activity coefficient (368.15 K)	activity coefficient (298.15 K)	activity coefficient (308.15 K)
CCO [ethanol] + N#C[N-]C#N.OCCC[n+]1ccccc1	1.3 ± 0.08	1.3 ± 0.08	1.3 ± 0.08	1.31 ± 0.09	1.31 ± 0.09	1.31 ± 0.09	–	–
C#CCCCC [1-hexyne] + N#C[N-]C#N.OCCC[n+]1ccccc1	21.5 ± 1.5	22.5 ± 1.5	23.4 ± 1.6	24.3 ± 1.7	25.2 ± 1.7	–	19.8 ± 1.4	20.6 ± 1.4
CCCCO [butan-1-ol] + N#C[N-]C#N.OCCC[n+]1ccccc1	3.29 ± 0.22	3.23 ± 0.22	3.18 ± 0.22	3.13 ± 0.21	3.09 ± 0.21	3.05 ± 0.21	–	–
c1ccncc1 [pyridine] + N#C[N-]C#N.OCCC[n+]1ccccc1	1.39 ± 0.09	1.48 ± 0.1	1.56 ± 0.1	1.64 ± 0.11	1.72 ± 0.12	1.8 ± 0.12	–	–
C=CCCCC [hex-1-ene] + N#C[N-]C#N.OCCC[n+]1ccccc1	120 ± 8	115 ± 8	111 ± 8	107 ± 7	103 ± 7	–	130 ± 9	125 ± 9
C1=CCCCC1 [cyclohexene] + N#C[N-]C#N.OCCC[n+]1ccccc1	36.6 ± 2.5	35.8 ± 2.4	34.8 ± 2.4	34 ± 2.3	33.4 ± 2.3	–	38.7 ± 2.6	37.6 ± 2.6
Cc1ccc(C)cc1 [1,4-dimethylbenzene] + N#C[N-]C#N.OCCC[n+]1ccccc1	13.8 ± 0.9	14.3 ± 1	14.8 ± 1	15.3 ± 1	15.7 ± 1.1	16.2 ± 1.1	–	–
CCc1ccccc1 [ethylbenzene] + N#C[N-]C#N.OCCC[n+]1ccccc1	16.1 ± 1.1	16.4 ± 1.1	16.8 ± 1.1	17.1 ± 1.2	17.4 ± 1.2	17.7 ± 1.2	–	–
Cc1ccccc1C [1,2-dimethylbenzene] + N#C[N-]C#N.OCCC[n+]1ccccc1	11.1 ± 0.8	11.5 ± 0.8	11.9 ± 0.8	12.3 ± 0.8	12.7 ± 0.9	13 ± 0.9	–	–
CCOCC [diethyl ether] + N#C[N-]C#N.OCCC[n+]1ccccc1	21.5 ± 1.5	21.5 ± 1.5	21.5 ± 1.5	21.5 ± 1.5	21.4 ± 1.5	21.4 ± 1.5	–	–
CC(C)c1ccccc1 [isopropylbenzene] + N#C[N-]C#N.OCCC[n+]1ccccc1	29.5 ± 2	29.7 ± 2	29.8 ± 2	30 ± 2.1	30.2 ± 2.1	30.4 ± 2.1	–	–
C#CCCCCCC [1-octyne] + N#C[N-]C#N.OCCC[n+]1ccccc1	69.4 ± 4.8	70.2 ± 4.8	71.1 ± 4.9	71.8 ± 4.9	72.6 ± 5	–	67.5 ± 4.6	68.5 ± 4.7
CCOC(C)=O [ethyl acetate] + N#C[N-]C#N.OCCC[n+]1ccccc1	6.37 ± 0.43	6.6 ± 0.45	6.81 ± 0.46	7.02 ± 0.48	7.23 ± 0.49	7.43 ± 0.51	–	–
CCC(=O)CC [pentan-3-one] + N#C[N-]C#N.OCCC[n+]1ccccc1	5.68 ± 0.39	5.92 ± 0.4	6.15 ± 0.42	6.36 ± 0.43	6.57 ± 0.45	6.79 ± 0.46	–	–
O [water] + N#C[N-]C#N.OCCC[n+]1ccccc1	–	0.399 ± 0.034	0.411 ± 0.034	0.421 ± 0.035	0.432 ± 0.035	–	–	–
CC(C)CO [2-methyl-1-propanol] + N#C[N-]C#N.OCCC[n+]1ccccc1	3.31 ± 0.23	3.26 ± 0.22	3.2 ± 0.22	3.15 ± 0.21	3.11 ± 0.21	3.06 ± 0.21	–	–
CC(C)O [propan-2-ol] + N#C[N-]C#N.OCCC[n+]1ccccc1	2.24 ± 0.15	2.2 ± 0.2	2.18 ± 0.15	2.15 ± 0.15	2.13 ± 0.14	2.11 ± 0.14	–	–
CC(C)=O [acetone] + N#C[N-]C#N.OCCC[n+]1ccccc1	1.87 ± 0.13	1.97 ± 0.13	2.05 ± 0.14	2.14 ± 0.15	2.23 ± 0.15	2.31 ± 0.16	–	–
CC1CCCCC1 [methylcyclohexane] + N#C[N-]C#N.OCCC[n+]1ccccc1	182 ± 13	170 ± 12	160 ± 11	150 ± 10	143 ± 10	–	210 ± 14	195 ± 13
CCCCCC [hexane] + N#C[N-]C#N.OCCC[n+]1ccccc1	296 ± 20	269 ± 18	–	–	–	–	364 ± 25	328 ± 23
C1CCCCC1 [cyclohexane] + N#C[N-]C#N.OCCC[n+]1ccccc1	105 ± 7	99.8 ± 6.8	95 ± 6.5	90.7 ± 6.2	86.9 ± 6	–	118 ± 8	111 ± 8

Compound	activity coefficient (318.15 K)	activity coefficient (328.15 K)	activity coefficient (338.15 K)	activity coefficient (348.15 K)	activity coefficient (358.15 K)	activity coefficient (368.15 K)	activity coefficient (298.15 K)	activity coefficient (308.15 K)
CCC(C)(C)OC [2-methoxy-2-methylbutane] + N#C[N-]C#N.OCCC[n+]1ccccc1	41.8 ± 2.9	42 ± 2.9	42.1 ± 2.9	42.3 ± 2.9	42.5 ± 2.9	42.6 ± 2.9	–	–
C=CCCCCCC [oct-1-ene] + N#C[N-]C#N.OCCC[n+]1ccccc1	346 ± 24	326 ± 22	310 ± 21	295 ± 20	282 ± 19	–	391 ± 27	367 ± 25
COC(C)(C)C [2-methoxy-2-methylpropane] + N#C[N-]C#N.OCCC[n+]1ccccc1	25.1 ± 1.7	25.5 ± 1.7	25.9 ± 1.8	26.2 ± 1.8	26.6 ± 1.8	26.9 ± 1.8	–	–
C1CCCCCC1 [cycloheptane] + N#C[N-]C#N.OCCC[n+]1ccccc1	139 ± 10	130 ± 9	122 ± 8	115 ± 8	109 ± 7	–	161 ± 11	149 ± 10
CC(C)OC(C)C [diisopropyl ether] + N#C[N-]C#N.OCCC[n+]1ccccc1	105 ± 7	102 ± 7	99.8 ± 6.8	97.5 ± 6.7	95.4 ± 6.5	93.6 ± 6.4	–	–
CCCC(C)=O [pentan-2-one] + N#C[N-]C#N.OCCC[n+]1ccccc1	5.58 ± 0.38	5.77 ± 0.39	5.96 ± 0.41	6.14 ± 0.42	6.33 ± 0.43	6.5 ± 0.44	–	–
C#CCCC [1-pentyne] + N#C[N-]C#N.OCCC[n+]1ccccc1	12.1 ± 0.8	12.6 ± 0.9	13.1 ± 0.9	13.5 ± 0.9	14 ± 1	–	11.1 ± 0.8	11.6 ± 0.8
C=CCCC [1-pentene] + N#C[N-]C#N.OCCC[n+]1ccccc1	66.3 ± 4.5	63.1 ± 4.3	–	–	–	–	74.6 ± 5.1	70.2 ± 4.8
CCC(=O)OC [methyl propanoate] + N#C[N-]C#N.OCCC[n+]1ccccc1	5.77 ± 0.39	5.99 ± 0.41	6.2 ± 0.42	6.42 ± 0.44	6.61 ± 0.45	6.81 ± 0.46	–	–
CC(C)(C)O [2-methylpropan-2-ol] + N#C[N-]C#N.OCCC[n+]1ccccc1	3.08 ± 0.21	3.08 ± 0.21	3.07 ± 0.21	3.07 ± 0.21	3.07 ± 0.21	3.05 ± 0.21	–	–
CCCCCO [pentan-1-ol] + N#C[N-]C#N.OCCC[n+]1ccccc1	4.98 ± 0.34	4.89 ± 0.33	4.81 ± 0.33	4.74 ± 0.32	4.68 ± 0.32	4.61 ± 0.31	–	–
CCC(C)O (stereo unspecified) [butan-2-ol] + N#C[N-]C#N.OCCC[n+]1ccccc1	3.23 ± 0.22	3.18 ± 0.22	3.13 ± 0.21	3.09 ± 0.21	3.05 ± 0.21	3.02 ± 0.21	–	–
CCCOCCC [dipropyl ether] + N#C[N-]C#N.OCCC[n+]1ccccc1	92.3 ± 6.3	89.2 ± 6.1	86.8 ± 5.9	84.2 ± 5.8	81.9 ± 5.6	79.7 ± 5.5	–	–
CCCC(=O)OC [methyl butanoate] + N#C[N-]C#N.OCCC[n+]1ccccc1	10.3 ± 0.7	10.6 ± 0.7	10.9 ± 0.7	11.2 ± 0.8	11.5 ± 0.8	11.7 ± 0.8	–	–
c1ccccc1 [benzene] + N#C[N-]C#N.OCCC[n+]1ccccc1	5.02 ± 0.34	5.18 ± 0.35	5.36 ± 0.37	5.53 ± 0.38	5.69 ± 0.39	5.85 ± 0.4	–	–
C1COCCO1 [1,4-dioxane] + N#C[N-]C#N.OCCC[n+]1ccccc1	1.74 ± 0.12	1.86 ± 0.13	1.99 ± 0.14	2.12 ± 0.14	2.25 ± 0.15	2.38 ± 0.16	–	–
Cc1cccc(C)c1 [1,3-dimethylbenzene] + N#C[N-]C#N.OCCC[n+]1ccccc1	14.4 ± 1	14.8 ± 1	15.3 ± 1	15.7 ± 1.1	16.1 ± 1.1	16.5 ± 1.1	–	–
CCCO [propan-1-ol] + N#C[N-]C#N.OCCC[n+]1ccccc1	2.03 ± 0.14	2.03 ± 0.14	2.02 ± 0.14	2.02 ± 0.14	2.01 ± 0.14	2.01 ± 0.14	–	–
c1ccsc1 [thiophene] + N#C[N-]C#N.OCCC[n+]1ccccc1	2.6 ± 0.18	2.71 ± 0.18	2.81 ± 0.19	2.93 ± 0.2	3.03 ± 0.21	3.14 ± 0.21	–	–
CC(C)CC(C)(C)C [2,2,4-trimethylpentane] + N#C[N-]C#N.OCCC[n+]1ccccc1	640 ± 44	579 ± 40	–	–	–	–	800 ± 55	714 ± 49
CCC(C)CC [3-methylpentane] + N#C[N-]C#N.OCCC[n+]1ccccc1	286 ± 20	272 ± 19	–	–	–	–	321 ± 22	302 ± 21
